Marks after values point to notes of the source that are not given here.
Tested on: intragastric pH
Assay: 24-h intragastric pH monitoring after single intravenous dexlansoprazole in healthy Chinese subjects
Format: in vivo, human
Conditions: 30 mg iv
Description: Dexlansoprazole injection (30 mg per vial) used in the PK and PD study was manufactured by Nanjing Yoko Pharma Co., Ltd. (Nanjing, China). Subjects received an intravenous infusion of 20 or 30 mg dexlansoprazole injection in sterile saline solution (100 mL/h, 60 min). The study drug was administrated with an infusing pump (SA213, Lifepum, Beijing, China) and given through an intravenous catheter in the antecubital vein opposite to the one from which blood samples were taken.
An ambulatory pH recorder (Orion II, MMS, USA) with a disposable pH catheter (VersaFlex, MMS, USA) was used to monitor intragastric pH. The electrode was placed in water for at least 10 min and then calibrated using standard buffer solutions (pH 1.07 and 7.01) before intubation. Both calibration and intubation processes were conducted under the guidance of MMS Virtual Instructor Program. The catheter, trans nasally placed 10 cm under the lower esophageal sphincter, was identified by a sharp decrease in pH (Wang et al., [2010], [2011]). Subjects were intubated on baseline and the day of dosing at about 7:30 a.m., and the intragastric pH data were recorded continuously for 24 h from 8:00 a.m. Intragastric pH was sampled every second, and the data were stored in a MMS Database program (MMS, USA). The PD parameters including Median (pH), Mean (pH), TpH≥3 (%), TpH≥4 (%), TpH≥6 (%), TpH≥6, and AUC^pH−t were analyzed by the MMS Database program.
Median (pH) and mean (pH) were well-investigated in most studies, and the percentage time of pH ≥ 4 (or pH ≥ 4 holding time ratio) was the benchmark for predicting clinical efficacy of PPIs in treating acid-related diseases (Metz et al., [2009]). Novel parameter TpH≥6 (time to first gastric pH ≥ 6, min) and AUCτ 1-τ 2pH-t (area under pH-time curve from τ1 to τ2, pH·s) were defined to evaluate the velocity and extent of pharmacodynamics with more accuracy. All parameters were calculated and compared according to time periods of 0–24, 0–4, 4–10, 10–14, and 14–24 h post dosing.
The parameter AUCτ 1-τ 2pH-t was calculated as follows:
Where t represented the time duration measured by seconds, AUCτ 1-τ 210-t was the area between the pH line = 10 and the pH-time curve, which was generated by the MMS software.
Baseline-adjusted PD parameters were calculated as follows: for example, ΔAUC^pH−t = AUC^pH−t − AUC^pH−tbaseline, ΔMean (pH) = Mean (pH) − Mean (pH)^baseline, and ΔMedian (pH) = Median (pH) − Median (pH)^baseline.

[1] = CYP2C19 EMs, H+/K+-ATPase Het (n = 8), 0–4 h
[2] = CYP2C19 EMs, H+/K+-ATPase Het (n = 8), 0–24 h
[3] = CYP2C19 EMs, H+/K+-ATPase Het (n = 8), 14–24 h
[4] = CYP2C19 EMs, H+/K+-ATPase Hom (n = 7), 0–4 h
[5] = CYP2C19 EMs, H+/K+-ATPase Hom (n = 7), 0–24 h
[6] = CYP2C19 EMs, H+/K+-ATPase Hom (n = 7), 14–24 h

## Cc1c(OCC(F)(F)F)ccnc1C[S@@+]([O-])c1nc2ccccc2[nH]1 [dexlansoprazole]
14–24 h
  TpH≥6(%): 49.2 ± 25.2%
  ΔMean (pH): 2.8 ± 1.4 pH
  ΔMedian (pH): 3.1 ± 1.9 pH
  ΔTpH≥3(%): 60.0 ± 26.0%
  ΔTpH≥4 (%): 54.8 ± 28.3%
  ΔTpH≥6(%): 35.2 ± 25.6%
CYP2C19 EM (n = 11), 0–4 h
  Mean (pH): 5.7 ± 1.6 pH
  Median (pH): 6.2 ± 2.1 pH
  TpH≥3(%): 73.9 ± 21.7%
  TpH≥4(%): 69.3 ± 24.3%
  TpH≥6(%): 58.7 ± 31.9%
  ΔMean (pH): 3.2 ± 1.1 pH
  ΔMedian (pH): 3.9 ± 1.8 pH
  ΔTpH≥3(%): 48.6 ± 24.5%
  ΔTpH≥4 (%): 51.9 ± 17.7%
  ΔTpH≥6(%): 53.0 ± 27.4%
CYP2C19 EM (n = 11), 0–24 h
  Mean (pH): 5.7 ± 1.3 pH
  Median (pH): 5.9 ± 1.7 pH
  TpH≥3(%): 80.0 ± 19.5%
  TpH≥4(%): 73.0 ± 23.2%
  TpH≥6(%): 56.4 ± 24.1%
  ΔMean (pH): 2.8 ± 1.1^c pH
  ΔMedian (pH): 3.7 ± 1.5 pH
  ΔTpH≥3(%): 47.9 ± 20.2^c %
  ΔTpH≥4 (%): 50.4 ± 21.3^c %
  ΔTpH≥6(%): 47.4 ± 19.7^c %
CYP2C19 EM (n = 11), 14–24 h
  Mean (pH): 4.9 ± 1.7 pH
  Median (pH): 4.5 ± 2.0 pH
  TpH≥3(%): 67.5 ± 34.5%
  TpH≥4(%): 56.3 ± 37.2%
  TpH≥6(%): 37.1 ± 25.0^c %
  ΔMean (pH): 2.0 ± 1.2^c pH
  ΔMedian (pH): 2.1 ± 1.8^c pH
  ΔTpH≥3(%): 47.0 ± 27.6^c %
  ΔTpH≥4 (%): 38.6 ± 27.9^c %
  ΔTpH≥6(%): 21.1 ± 18.0^c %
[1]
  Mean (pH): 4.7 ± 2.4 pH
  Median (pH): 4.5 ± 2.8 pH
  TpH≥3(%): 63.7 ± 35.7%
  TpH≥4(%): 56.9 ± 39.3^c %
  TpH≥6(%): 39.4 ± 48.2%
  ΔMean (pH): 2.2 ± 0.8^c pH
  ΔMedian (pH): 1.9 ± 1.0^a^,^c pH
  ΔTpH≥3(%): 36.4 ± 20.1%
  ΔTpH≥4 (%): 35.0 ± 11.7%
  ΔTpH≥6(%): 33.8 ± 39.0%
[2]
  Mean (pH): 5.1 ± 1.7 pH
  Median (pH): 4.9 ± 2.1 pH
  TpH≥3(%): 70.1 ± 26.3%
  TpH≥4(%): 62.9 ± 33.1%
  TpH≥6(%): 48.0 ± 32.5%
  ΔMean (pH): 2.3 ± 0.6^c pH
  ΔMedian (pH): 2.9 ± 1.6 pH
  ΔTpH≥3(%): 40.8 ± 11.1^c %
  ΔTpH≥4 (%): 41.4 ± 17.3^c %
  ΔTpH≥6(%): 37.3 ± 19.1%
[3]
  Mean (pH): 4.1 ± 2.1 pH
  Median (pH): 3.5 ± 2.2 pH
  TpH≥3(%): 53.0 ± 41.0%
  TpH≥4(%): 44.6 ± 48.0%
  TpH≥6(%): 30.2 ± 32.6%
  ΔMean (pH): 1.2 ± 0.4^c pH
  ΔMedian (pH): 0.5 ± 0.5^c pH
  ΔTpH≥3(%): 31.5 ± 13.0^c %
  ΔTpH≥4 (%): 25.1 ± 16.9%
  ΔTpH≥6(%): 11.6 ± 2.9^c %
[4]
  Mean (pH): 6.6 ± 0.5 pH
  Median (pH): 7.8 ± 0.1 pH
  TpH≥3(%): 78.7 ± 10.0%
  TpH≥4(%): 77.1 ± 11.6^b %
  TpH≥6(%): 75.5 ± 12.2%
  ΔMean (pH): 4.3 ± 0.4^b pH
  ΔMedian (pH): 5.9 ± 0.4^b pH
  ΔTpH≥3(%): 62.5 ± 11.6%
  ΔTpH≥4 (%): 67.2 ± 2.4%
  ΔTpH≥6(%): 70.1 ± 4.5%
[5]
  Mean (pH): 6.8 ± 0.2 pH
  Median (pH): 7.5 ± 0.4 pH
  TpH≥3(%): 95.1 ± 1.1%
  TpH≥4(%): 87.9 ± 4.7%
  TpH≥6(%): 73.4 ± 3.7%
  ΔMean (pH): 4.3 ± 0.4^a^,^b pH
  ΔMedian (pH): 5.4 ± 0.3 pH
  ΔTpH≥3(%): 77.4 ± 6.3^a^,^b %
  ΔTpH≥4 (%): 78.0 ± 1.5^a^,^b %
  ΔTpH≥6(%): 68.7 ± 7.9%
[6]
  Mean (pH): 6.2 ± 0.4 pH
  Median (pH): 6.3 ± 1.3 pH
  TpH≥3(%): 96.8 ± 1.2%
  TpH≥4(%): 80.4 ± 6.2%
  TpH≥6(%): 51.5 ± 10.9%
  ΔMean (pH): 3.7 ± 0.5^a^,^b pH
  ΔMedian (pH): 4.2 ± 0.8^b pH
  ΔTpH≥3(%): 83.1 ± 5.9^a^,^b %
  ΔTpH≥4 (%): 72.4 ± 1.5%
  ΔTpH≥6(%): 45.8 ± 17.4^a^,^b %

— article PMC5614982, “Impact of Gastric H^+/K^+-ATPase rs2733743 on the Intragastric pH-Values of Dexlansoprazole Injection in Chinese Subjects” (Frontiers in Pharmacology, 2017)
